Patent US7807678B2, “Peptidomimetics of biologically active metallopeptides” (Palatin Technologies, Inc., priority 2001, dated 2010)
Non-standard residues stand in square brackets, D forms with d. Residues, ends and D or L forms follow the SMILES beside them. *: point of attachment. Hyp = O=C(O)[C@@H]1C[C@@H](O)CN1; NH(CH2)3NH2 = NCCCN*; Bn = c1ccc(C*)cc1

Experiments:
MC5-R = MC5-R (Homo sapiens, UniProt P33032); experiment: Competitive inhibition binding assay, 125I-NDP-α-MSH, MC5-R; set-up: expressed in transfected cells; conditions: for Inhibition at 1 μM MC5-R: 1 μM compound, inhibition of 125I-NDP-α-MSH binding, mean of triplicates, results less than 0% reported as 0%
Procedure: (§1) The competitive inhibition binding assay was conducted using membranes prepared from hMC3-R, hMC4-R, hMC5-R, and B-16 mouse melanoma cells (containing MC1-R) using 0.4 nM ^125I-NDP-α-MSH (New England Nuclear, Boston, Mass., USA) in 50 mM HEPES buffer containing 1 mM MgCl2, 2 mM CaCl2, and 5 mM KCl, at pH 7.2. The assay tube also contained a chosen concentration of the test peptidomimetic of this invention, generally 1 μM, for determining its efficacy in inhibiting the binding of ^125I-NDP-α-MSH to its receptor.
(§2) Incubation was for 90 minutes at room temperature, after which the assay mixture was filtered and the membranes washed three times with ice cold buffer. The filter was dried and counted in a gamma counter for remaining radioactivity bound to the membranes. 100% specific binding was defined as the difference in radioactivity (cpm) bound to cell membranes in the absence and presence of 1 μM α-MSH. […] Each assay was conducted in triplicate and the actual mean values are described.

MC3-R = MC3-R (Homo sapiens, UniProt P41968); experiment: Competitive inhibition binding assay, 125I-NDP-α-MSH, MC3-R; set-up: expressed in transfected cells; conditions: for Inhibition at 1 μM MC3-R: 1 μM compound, inhibition of 125I-NDP-α-MSH binding, mean of triplicates, results less than 0% reported as 0%
Procedure: as §1, §2

MC4-R = MC4-R (Homo sapiens, UniProt P32245); experiment: Competitive inhibition binding assay, 125I-NDP-α-MSH, MC4-R; set-up: expressed in transfected cells; conditions: for Inhibition at 1 μM MC4-R: 1 μM compound, inhibition of 125I-NDP-α-MSH binding, mean of triplicates, results less than 0% reported as 0%
Procedure: as §1, §2

[1] = target: T1, MC1-R (B-16 mouse melanoma cells) (Mus musculus, UniProt Q01727); experiment: Competitive inhibition binding assay, 125I-NDP-α-MSH, MC1-R; conditions: for Inhibition at 1 μM MC1-R: 1 μM compound, inhibition of 125I-NDP-α-MSH binding, mean of triplicates, results less than 0% reported as 0%
T1 construct: B-16 mouse melanoma cells (containing MC1-R); endogenous in cells; host or cells: B-16 mouse melanoma cells
Procedure: as §1, §2

Sequence of MC5-R (P33032 whole entry): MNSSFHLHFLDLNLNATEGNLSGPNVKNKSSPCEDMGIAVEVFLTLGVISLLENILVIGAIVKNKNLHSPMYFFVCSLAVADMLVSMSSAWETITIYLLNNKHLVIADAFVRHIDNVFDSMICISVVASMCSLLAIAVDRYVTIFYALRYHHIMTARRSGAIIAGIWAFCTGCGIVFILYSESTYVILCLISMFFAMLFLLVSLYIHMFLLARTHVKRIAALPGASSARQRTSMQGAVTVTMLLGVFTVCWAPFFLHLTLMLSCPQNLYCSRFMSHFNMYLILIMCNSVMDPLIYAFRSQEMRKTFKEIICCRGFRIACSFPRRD
T1 sequence (Q01727 whole entry): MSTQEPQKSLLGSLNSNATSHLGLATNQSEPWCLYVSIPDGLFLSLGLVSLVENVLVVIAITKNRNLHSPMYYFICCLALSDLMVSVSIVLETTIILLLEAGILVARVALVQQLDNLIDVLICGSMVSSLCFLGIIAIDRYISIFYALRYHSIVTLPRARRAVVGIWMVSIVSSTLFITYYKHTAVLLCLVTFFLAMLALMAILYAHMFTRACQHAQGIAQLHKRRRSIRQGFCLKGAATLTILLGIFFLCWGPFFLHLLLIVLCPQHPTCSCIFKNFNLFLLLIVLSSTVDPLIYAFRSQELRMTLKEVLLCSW
Sequence of MC4-R (P32245 whole entry): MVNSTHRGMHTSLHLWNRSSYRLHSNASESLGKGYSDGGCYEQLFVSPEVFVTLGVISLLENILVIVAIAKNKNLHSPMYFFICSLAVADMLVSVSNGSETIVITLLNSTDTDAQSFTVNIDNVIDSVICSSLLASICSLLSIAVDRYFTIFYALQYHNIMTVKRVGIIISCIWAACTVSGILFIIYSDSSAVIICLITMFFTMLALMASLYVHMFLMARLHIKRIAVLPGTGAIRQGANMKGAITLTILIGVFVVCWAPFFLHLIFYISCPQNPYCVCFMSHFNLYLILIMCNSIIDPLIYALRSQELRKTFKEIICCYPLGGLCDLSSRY
Sequence of MC3-R (P41968 whole entry): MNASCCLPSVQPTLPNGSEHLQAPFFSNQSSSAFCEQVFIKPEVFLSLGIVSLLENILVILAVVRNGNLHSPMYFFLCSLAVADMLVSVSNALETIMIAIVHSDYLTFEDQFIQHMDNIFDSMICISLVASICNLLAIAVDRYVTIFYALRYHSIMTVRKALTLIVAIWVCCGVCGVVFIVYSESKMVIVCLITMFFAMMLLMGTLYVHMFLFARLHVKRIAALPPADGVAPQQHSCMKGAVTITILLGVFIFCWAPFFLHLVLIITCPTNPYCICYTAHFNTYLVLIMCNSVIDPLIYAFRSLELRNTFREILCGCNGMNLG

SMILES	Inhibition at 1 μM MC5-R (MC5-R) [%]	Inhibition at 1 μM MC3-R (MC3-R) [%]	Inhibition at 1 μM MC4-R (MC4-R) [%]	Inhibition at 1 μM MC1-R [1] [%]	inhibition at 1 µM (MC5-R) [%]	inhibition at 1 µM (MC3-R) [%]	inhibition at 1 µM (MC4-R) [%]	inhibition at 1 µM [1] [%]
N=C(N)NCCC[C@H]1C(=O)N(CCc2ccc3ccccc3c2)CCN1C(=O)[C@H](N)Cc1ccccc1Cl [Example 122]	5	2	69	3	–	–	–	–
N=C(N)NCCC[C@H]1C(=O)N(CCc2ccc3ccccc3c2)CCN1C(=O)[C@H](N)Cc1ccc(Cl)cc1 [Example 123]	29	38	87	34	–	–	–	–
N=C(N)NCCC[C@H]1C(=O)N(CCc2c[nH]c3ccccc23)CCN1C(=O)[C@H](N)Cc1ccc(Cl)cc1Cl [Example 124]	35	57	96	7	–	–	–	–
Cc1ccc(CCN2CCN(C(=O)[C@H](N)Cc3ccc(Cl)cc3Cl)[C@@H](CCCNC(=N)N)C2=O)cc1 [Example 126]	34	42	78	11	–	–	–	–
N=C(N)c1ccc(C[C@H]2C(=O)N(CCc3ccc4ccccc4c3)CCN2C(=O)[C@H](N)Cc2ccc(Cl)cc2Cl)cc1 [Example 128]	21	0	31	5	–	–	–	–
NCCC[C@H]1CN(CCc2ccc3ccccc3c2)CCN1C(=O)[C@H](N)Cc1ccc(Cl)cc1Cl [Example 130]	39	33	81	0	–	–	–	–
C[C@H](N)C(=O)N[C@@H](Cc1cnc[nH]1)C(=O)N[C@H](Cc1ccccc1)C(=O)N1C[C@H](OCc2ccccc2)C[C@H]1C(=O)NCCCN [Example 135] (H-AH[dF][Hyp](Bn)-{NH(CH2)3NH2})	0	0	0	93	–	–	–	–
[2H]N[C@@H](Cc1ccccc1)C(=O)N1C[C@H](OCc2ccccc2)C[C@H]1C(=O)NCCCN [Example 137]	–	–	–	–	0	0	0	23
CC(=O)NC(Cc1cnc[nH]1)C(=O)NC(Cc1ccccc1)C(=O)N1CC(OCc2ccccc2)CC1C(=O)NCCCN (stereo not shown) [Example 139]	34	46	43	85	–	–	–	–
NCCCNC(=O)[C@@H]1C[C@@H](OCc2ccccc2)CN1C(=O)[C@@H](Cc1ccccc1)NC(=O)[C@H](Cc1cnc[nH]1)NC(=O)c1ccccc1 [Example 140]	10	3	1	78	–	–	–	–
NCCCNC(=O)[C@@H]1C[C@@H](OCc2ccccc2)CN1C(=O)[C@@H](Cc1ccccc1)NC(=O)[C@H](Cc1cnc[nH]1)NC(=O)Cc1ccc2ccccc2c1 [Example 141]	19	4	0	84	–	–	–	–
NCCCNC(=O)[C@@H]1C[C@@H](OCc2ccccc2)CN1C(=O)[C@@H](Cc1ccccc1)NC(=O)[C@H](Cc1cnc[nH]1)NC(=O)CC1CCCCC1 [Example 142]	12	3	0	85	–	–	–	–
CCCC(CCC)C(=O)N[C@@H](Cc1cnc[nH]1)C(=O)N[C@H](Cc1ccccc1)C(=O)N1C[C@H](OCc2ccccc2)C[C@H]1C(=O)NCCCN [Example 143]	7	0	0	73	–	–	–	–
CCCCCCC(=O)N[C@@H](Cc1cnc[nH]1)C(=O)N[C@H](Cc1ccccc1)C(=O)N1C[C@H](OCc2ccccc2)C[C@H]1C(=O)NCCCNC(=N)N [Example 154]	1	7	1	92	–	–	–	–
CCCCCCC(=O)N[C@@H](Cc1cnc[nH]1)C(=O)N[C@H](Cc1ccccc1)C(=O)N1C[C@H](OCc2ccccc2)C[C@H]1C(=O)NCCCN [Example 155]	7	5	0	71	–	–	–	–
NCCCNC(=O)C1CC(OCc2ccccc2)CN1C(=O)C(Cc1ccccc1)NC(=O)C1NCCc2ccccc21 (stereo not shown) [Example 159]	0	14	1	0	–	–	–	–
NCCCNC(=O)[C@@H]1C[C@@H](OCc2ccccc2)CN1C(=O)[C@@H](Cc1ccccc1)NC(=O)C1(N)CCCC1 [Example 161]	0	23	10	3	–	–	–	–
NCCCNC(=O)[C@@H]1C[C@@H](OCc2ccccc2)CN1C(=O)[C@@H](Cc1ccccc1)NC(=O)C1(N)CCCCC1 [Example 162]	0	41	8	0	–	–	–	–
NCCCNC(=O)[C@@H]1C[C@@H](OCc2ccccc2)CN1C(=O)[C@@H](Cc1ccccc1)NC(=O)[C@@H](N)Cc1cccc2ccccc12 [Example 165]	0	2	16	0	–	–	–	–
NCCCNC(=O)[C@@H]1C[C@@H](OCc2ccccc2)CN1C(=O)[C@@H](Cc1ccccc1)NC(=O)[C@H](N)Cc1cccc2ccccc12 [Example 166]	0	13	8	0	–	–	–	–

More lines, now with the values ahead:

Inhibition at 1 μM MC5-R (MC5-R) [%]	Inhibition at 1 μM MC3-R (MC3-R) [%]	Inhibition at 1 μM MC4-R (MC4-R) [%]	Inhibition at 1 μM MC1-R [1] [%]	inhibition at 1 µM (MC5-R) [%]	inhibition at 1 µM (MC3-R) [%]	inhibition at 1 µM (MC4-R) [%]	inhibition at 1 µM [1] [%]	SMILES
66	19	94	96	–	–	–	–	NCCCC[C@H]1C(=O)N2C(CC[C@@H]2COc2ccc3c(c2)CCCC3)N1C(=O)[C@@H](Cc1ccc(Cl)cc1)NC(=O)[C@@H]1Cc2ccccc2CN1 (stereo partly shown) [Example 108]
56	4	78	93	–	–	–	–	NCCCC[C@H]1C(=O)N2C(CC[C@@H]2COc2ccc3c(c2)CCCC3)N1C(=O)[C@@H](Cc1ccc(Cl)cc1)NC(=O)[C@@H](N)COCc1ccccc1 (stereo partly shown) [Example 109]
84	59	96	97	–	–	–	–	NCCCCCCC(=O)N[C@@H](COCc1ccccc1)C(=O)N[C@H](Cc1ccc(Cl)cc1)C(=O)N1C2CC[C@H](COc3ccc4c(c3)CCCC4)N2C(=O)[C@@H]1CCCCN (stereo partly shown) [Example 110]
43	28	68	10	–	–	–	–	N=C(N)NCCC[C@H]1C(=O)N(CCc2c[nH]c3ccccc23)CCN1C(=O)[C@H](N)Cc1ccc(Cl)cc1 [Example 125]
17	9	49	9	–	–	–	–	Cc1ccc(CCN2CCN(C(=O)[C@H](N)Cc3ccc(Cl)cc3)[C@@H](CCCNC(=N)N)C2=O)cc1 [Example 127]
0	0	0	39	–	–	–	–	CCCCCCC(=O)N[C@@H](COCc1ccccc1)C(=O)N[C@H](Cc1ccc2ccccc2c1)C(=O)N1C[C@@H](Oc2ccc3ccccc3c2)C[C@H]1C(=O)NCCCN [Example 138]
0	5	0	0	–	–	–	–	NCCCNC(=O)[C@@H]1C[C@@H](OCc2ccccc2)CN1C(=O)[C@@H](Cc1ccccc1)NC(=O)[C@H](N)Cc1ccc2ccccc2c1 [Example 158]
0	36	5	1	–	–	–	–	NCCCNC(=O)C1CC(OCc2ccccc2)CN1C(=O)C(Cc1ccccc1)NC(=O)C1NCCc2ccccc21 (stereo not shown) [Example 160]
0	16	15	0	–	–	–	–	NCCCNC(=O)[C@@H]1C[C@@H](OCc2ccccc2)CN1C(=O)[C@@H](Cc1ccccc1)NC(=O)C1(N)Cc2ccccc2C1 [Example 163]
1	0	13	0	–	–	–	–	NCCCNC(=O)[C@@H]1C[C@@H](OCc2ccccc2)CN1C(=O)[C@@H](Cc1ccccc1)NC(=O)[C@@H](N)Cc1ccc2ccccc2c1 [Example 164]
5	0	8	22	–	–	–	–	[2H]N1CCCC1C(=O)NC(Cc1ccccc1)C(=O)N1CC(OCc2ccccc2)CC1C(=O)NCCCN (stereo not shown) [Example 167]
